Laboratory results from patent US6737383B1, “Herbicidal oxadiazolidines” (priority 1999, dated 2004).

Columns and labels:
surinam grass = test: Test B pre/postemergence surinam grass; type: in vivo, Brachiaria decumbens
Outline: (§1)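 Test chemicals in a non-phytotoxic solvent mixture with surfactant were sprayed preemergence onto planted seeds and postemergence onto plants 2 to 18 cm tall (1- to 4-leaf stage). After twelve to sixteen days in a greenhouse, injury was visually rated against untreated controls from 0 (no effect) to 10 (complete control).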

wild oat = test: Test B pre/postemergence wild oat; type: in vivo, Avena fatua
Outline: as §1

giant foxtail = test: Test B pre/postemergence giant foxtail; type: in vivo, Setaria faberii
Outline: as §1

rape = test: Test B pre/postemergence rape; type: in vivo, Brassica napus
Outline: as §1

purple nutsedge = test: Test B pre/postemergence purple nutsedge; type: in vivo, Cyperus rotundus
Outline: as §1

corn = test: Test B pre/postemergence corn; type: in vivo, Zea mays
Outline: as §1

crabgrass = test: Test B pre/postemergence crabgrass; type: in vivo, Digitaria sanguinalis
Outline: as §1

velvetleaf = test: Test B pre/postemergence velvetleaf; type: in vivo, Abutilon theophrasti
Outline: as §1

pigweed = test: Test B pre/postemergence pigweed; type: in vivo, Amaranthus retroflexus
Outline: as §1

cocklebur = test: Test B pre/postemergence cocklebur; type: in vivo, Xanthium strumarium
Outline: as §1

wheat = test: Test B pre/postemergence wheat; type: in vivo, Triticum aestivum
Outline: as §1

sugar beet = test: Test B pre/postemergence sugar beet; type: in vivo, Beta vulgaris
Outline: as §1

soybean = test: Test B pre/postemergence soybean; type: in vivo, Glycine max
Outline: as §1

morningglory = test: Test B pre/postemergence morningglory; type: in vivo, Ipomoea hederacea
Outline: as §1

bedstraw = test: Test B pre/postemergence bedstraw; type: in vivo, Galium aparine
Outline: as §1

blackgrass = test: Test B pre/postemergence blackgrass; type: in vivo, Alopecurus myosuroides
Outline: as §1

[1] = Postemergence, Rate 62 g/ha, scale of 0 to 10, 0 is no effect, 10 is complete control
[2] = Postemergence, Rate 125 g/ha, scale 0 to 10, 0 is no effect, 10 is complete control
[3] = Postemergence, Rate 500 g/ha, scale 0 to 10, 0 is no effect, 10 is complete control
[4] = Preemergence, Rate 62 g/ha, scale 0 to 10 (0 no effect, 10 complete control)
[5] = Preemergence, Rate 125 g/ha, scale 0 to 10, 0 is no effect, 10 is complete control
[6] = Preemergence, Rate 500 g/ha, scale of 0 to 10 where 0 is no effect and 10 is complete control
[7] = Rate 250 g/ha, Postemergence, scale of 0 to 10 where 0 is no effect and 10 is complete control

Cc1noc(C)c1Cn1c(=O)on(C(=O)N(c2ccc(Cl)cc2)C(C)C)c1=O [Compound 540]
B. signalgrass plant response rating (surinam grass; [1]): 0 | B. signalgrass plant response rating (surinam grass; [2]): 0 | Plant response rating, B. signalgrass (surinam grass; [3]): 3 | B. signalgrass plant response rating (surinam grass; [4]): 0 | B. signalgrass plant response rating (surinam grass; [5]): 0 | B. signalgrass plant response rating (0 to 10 scale, 0 is no effect, 10 is complete control) (surinam grass; Preemergence, Rate 250 g/ha): 0 | B. signalgrass plant response rating (surinam grass; [6]): 8 | Plant response rating, B. signalgrass (surinam grass; [7]): 0 | Wild oats plant response rating (wild oat; [1]): 0 | Wild oats plant response rating (wild oat; [2]): 0 | Plant response rating, Wild oats (wild oat; [3]): 2 | Wild oats plant response rating (wild oat; [4]): 0 | Wild oats plant response rating (wild oat; [5]): 2 | Wild oats plant response rating (0 to 10 scale) (wild oat; Preemergence, Rate 250 g/ha): 2 | Wild oats plant response rating (wild oat; [6]): 8 | Plant response rating, Wild oats (wild oat; [7]): 0 | Giant foxtail plant response rating (giant foxtail; [1]): 0 | Giant foxtail plant response rating (giant foxtail; [2]): 0 | Plant response rating, Giant foxtail (giant foxtail; [3]): 3 | Giant foxtail plant response rating (giant foxtail; [4]): 9 | Giant foxtail plant response rating (giant foxtail; [5]): 9 | Giant foxtail plant response rating (0 to 10 scale) (giant foxtail; Preemergence, Rate 250 g/ha): 10 | Giant foxtail plant response rating (giant foxtail; [6]): 10 | Plant response rating, Giant foxtail (giant foxtail; [7]): 0 | Rape plant response rating (rape; [1]): 0 | Rape plant response rating (rape; [2]): 2 | Rape plant response rating (rape; [4]): 0 | Rape plant response rating (rape; [5]): 0 | Rape plant response rating (0 to 10 scale) (rape; Preemergence, Rate 250 g/ha): 2 | Rape plant response rating (rape; [6]): 7 | Plant response rating, Rape (rape; [7]): 7 | Nutsedge plant response rating (purple nutsedge; [1]): 0 | Nutsedge plant response rating (purple nutsedge; [2]): 0 | Plant response rating, Nutsedge (purple nutsedge; [3]): 0 | Nutsedge plant response rating (purple nutsedge; [5]): 0 | Nutsedge plant response rating (0 to 10 scale) (purple nutsedge; Preemergence, Rate 250 g/ha): 0 | Nutsedge plant response rating (purple nutsedge; [6]): 0 | Plant response rating, Nutsedge (purple nutsedge; [7]): 0 | Corn plant response rating (corn; [1]): 0 | Corn plant response rating (corn; [2]): 0 | Plant response rating, Corn (corn; [3]): 0 | Corn plant response rating (corn; [4]): 0 | Corn plant response rating (corn; [5]): 0 | Corn plant response rating (0 to 10 scale) (corn; Preemergence, Rate 250 g/ha): 0 | Corn plant response rating (corn; [6]): 2 | Plant response rating, Corn (corn; [7]): 0 | Crabgrass plant response rating (crabgrass; [1]): 5 | Crabgrass plant response rating (crabgrass; [2]): 5 | Plant response rating, Crabgrass (crabgrass; [3]): 8 | Crabgrass plant response rating (crabgrass; [4]): 8 | Crabgrass plant response rating (crabgrass; [5]): 9 | Crabgrass plant response rating (0 to 10 scale) (crabgrass; Preemergence, Rate 250 g/ha): 10 | Crabgrass plant response rating (crabgrass; [6]): 10 | Plant response rating, Crabgrass (crabgrass; [7]): 5 | Velvetleaf plant response rating (velvetleaf; [1]): 0 | Velvetleaf plant response rating (velvetleaf; [2]): 0 | Plant response rating, Velvetleaf (velvetleaf; [3]): 1 | Velvetleaf plant response rating (velvetleaf; [4]): 0 | Velvetleaf plant response rating (velvetleaf; [5]): 0 | Velvetleaf plant response rating (0 to 10 scale) (velvetleaf; Preemergence, Rate 250 g/ha): 0 | Velvetleaf plant response rating (velvetleaf; [6]): 0 | Plant response rating, Velvetleaf (velvetleaf; [7]): 0 | Redroot pigweed plant response rating (pigweed; [1]): 0 | Redroot pigweed plant response rating (pigweed; [2]): 0 | Plant response rating, Redroot pigweed (pigweed; [3]): 2 | Redroot pigweed plant response rating (pigweed; [4]): 0 | Redroot pigweed plant response rating (pigweed; [5]): 0 | Redroot pigweed plant response rating (0 to 10 scale) (pigweed; Preemergence, Rate 250 g/ha): 3 | Redroot pigweed plant response rating (pigweed; [6]): 10 | Plant response rating, Redroot pigweed (pigweed; [7]): 2 | Cocklebur plant response rating (cocklebur; [1]): 0 | Cocklebur plant response rating (cocklebur; [2]): 0 | Plant response rating, Cocklebur (cocklebur; [3]): 0 | Cocklebur plant response rating (cocklebur; [4]): 0 | Cocklebur plant response rating (cocklebur; [5]): 0 | Cocklebur plant response rating (0 to 10 scale) (cocklebur; Preemergence, Rate 250 g/ha): 9 | Cocklebur plant response rating (cocklebur; [6]): 10 | Plant response rating, Cocklebur (cocklebur; [7]): 0 | Wheat plant response rating (wheat; [1]): 0 | Wheat plant response rating (wheat; [2]): 0 | Plant response rating, Wheat (wheat; [3]): 0 | Wheat plant response rating (wheat; [4]): 0 | Wheat plant response rating (wheat; [5]): 0 | Wheat plant response rating (0 to 10 scale) (wheat; Preemergence, Rate 250 g/ha): 0 | Wheat plant response rating (wheat; [6]): 0 | Plant response rating, Wheat (wheat; [7]): 0 | Sugarbeets plant response rating (sugar beet; [1]): 0 | Sugarbeets plant response rating (sugar beet; [2]): 2 | Plant response rating, Sugarbeets (sugar beet; [3]): 6 | Sugarbeets plant response rating (sugar beet; [4]): 0 | Sugarbeets plant response rating (sugar beet; [5]): 0 | Sugarbeets plant response rating (0 to 10 scale) (sugar beet; Preemergence, Rate 250 g/ha): 0 | Sugarbeets plant response rating (sugar beet; [6]): 4 | Plant response rating, Sugarbeets (sugar beet; [7]): 6 | Soybean plant response rating (soybean; [1]): 1 | Soybean plant response rating (soybean; [2]): 1 | Plant response rating, Soybean (soybean; [3]): 1 | Soybean plant response rating (soybean; [4]): 0 | Soybean plant response rating (soybean; [5]): 0 | Soybean plant response rating (0 to 10 scale) (soybean; Preemergence, Rate 250 g/ha): 0 | Soybean plant response rating (soybean; [6]): 0 | Plant response rating, Soybean (soybean; [7]): 1 | Morningglory plant response rating (morningglory; [1]): 2 | Morningglory plant response rating (morningglory; [2]): 4 | Plant response rating, Morningglory (morningglory; [3]): 6 | Morningglory plant response rating (morningglory; [4]): 0 | Morningglory plant response rating (morningglory; [5]): 0 | Morningglory plant response rating (0 to 10 scale) (morningglory; Preemergence, Rate 250 g/ha): 0 | Morningglory plant response rating (morningglory; [6]): 0 | Plant response rating, Morningglory (morningglory; [7]): 5 | Bedstraw plant response rating (bedstraw; [1]): 0 | Bedstraw plant response rating (bedstraw; [2]): 3 | Plant response rating, Bedstraw (bedstraw; [3]): 9 | Bedstraw plant response rating (bedstraw; [4]): 0 | Bedstraw plant response rating (bedstraw; [5]): 0 | Bedstraw plant response rating (0 to 10 scale) (bedstraw; Preemergence, Rate 250 g/ha): 0 | Bedstraw plant response rating (bedstraw; [6]): 0 | Plant response rating, Bedstraw (bedstraw; [7]): 10 | Blackgrass plant response rating (blackgrass; [1]): 0 | Blackgrass plant response rating (blackgrass; [2]): 0 | Plant response rating, Blackgrass (blackgrass; [3]): 7 | Blackgrass plant response rating (blackgrass; [4]): 0 | Blackgrass plant response rating (blackgrass; [5]): 0 | Blackgrass plant response rating (0 to 10 scale) (blackgrass; Preemergence, Rate 250 g/ha): 0 | Blackgrass plant response rating (blackgrass; [6]): 9 | Plant response rating, Blackgrass (blackgrass; [7]): 2
